Values belong to the molecule of their own block, whether it stands above or below them.
Experiments:
α-1,4-glucan lyase [1] = assay: Km of the lyase; type: biochemical, Gracilariopsis lemaneiformis; details: substrate of the lyase
Target sequence in this assay (as listed by the source): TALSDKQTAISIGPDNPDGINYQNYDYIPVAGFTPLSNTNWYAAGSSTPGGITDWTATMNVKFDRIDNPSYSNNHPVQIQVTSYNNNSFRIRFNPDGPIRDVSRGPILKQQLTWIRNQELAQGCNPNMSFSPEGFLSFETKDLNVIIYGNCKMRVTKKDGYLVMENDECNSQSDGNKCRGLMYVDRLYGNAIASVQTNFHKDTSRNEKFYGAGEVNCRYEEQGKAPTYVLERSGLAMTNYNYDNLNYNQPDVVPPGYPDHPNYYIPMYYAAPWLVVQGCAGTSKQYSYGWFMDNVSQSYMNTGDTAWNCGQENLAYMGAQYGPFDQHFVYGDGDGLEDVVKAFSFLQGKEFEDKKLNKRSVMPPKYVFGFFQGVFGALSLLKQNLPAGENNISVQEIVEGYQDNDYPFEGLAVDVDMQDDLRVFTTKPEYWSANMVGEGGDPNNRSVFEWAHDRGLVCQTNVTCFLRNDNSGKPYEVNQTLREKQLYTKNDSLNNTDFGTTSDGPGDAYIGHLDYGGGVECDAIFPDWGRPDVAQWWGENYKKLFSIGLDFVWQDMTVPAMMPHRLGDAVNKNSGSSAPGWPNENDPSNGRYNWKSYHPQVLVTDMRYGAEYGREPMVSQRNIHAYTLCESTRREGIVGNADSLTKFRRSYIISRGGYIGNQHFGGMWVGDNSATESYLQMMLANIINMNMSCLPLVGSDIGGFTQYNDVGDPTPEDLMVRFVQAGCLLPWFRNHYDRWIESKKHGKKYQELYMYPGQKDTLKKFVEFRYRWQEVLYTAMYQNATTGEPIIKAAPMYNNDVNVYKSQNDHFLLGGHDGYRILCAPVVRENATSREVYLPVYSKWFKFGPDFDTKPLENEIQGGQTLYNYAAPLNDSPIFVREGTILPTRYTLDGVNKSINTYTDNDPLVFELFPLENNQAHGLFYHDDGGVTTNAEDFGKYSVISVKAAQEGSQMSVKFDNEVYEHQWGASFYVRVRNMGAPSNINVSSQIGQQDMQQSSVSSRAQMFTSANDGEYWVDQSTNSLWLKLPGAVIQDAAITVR

α-1,4-glucan lyase [2] = assay: Degradation studies: AF released by the lyase from various substrates; type: biochemical, Gracilariopsis lemaneiformis; details: for AF released: substrate 10 mg/ml, 10 mM HOAc-NaOAc pH 3.8, 40 min at 45° C., 100 ul
Description: Reaction conditions: The reaction mixture contained 10 mM of HOAc-NaOAc (pH 3.8). The substrate concentration was 10 mg/ml. The final volume was 100 ul after the addition of lyase and water. The reaction time was 40 min at 45° C.

lyase and pullulanase = assay: Cooperation of pullulanase and lyase in the production of AF; type: biochemical; details: 2% substrate, 30° C., 1 day
Description: The reaction mixture contained 0.3 ml 2% potato amylopectin (Sigma) in water or 0.3 ml 2% soluble starch (Merck), 2 μl lyase and 0.36 units pullulanase (BM) as indicated.
The reaction was carried out at 30° C. for 1 day. At the end of the reaction, samples were taken for AF and Glc analysis.

α-1,4-glucan lyase [3] = assay: Effect of substrate on the stability of the lyase; type: biochemical; details: soluble and immobilized enzyme system
Target sequence in this assay (as listed by the source): as above

α-1,4-glucan lyase [4] = assay: Substrate specificity for oligosaccharides by Dionex HPLC; type: biochemical; details: 8 mg/ml substrate, 0.1M MES pH 6.3, 60 min at 30° C.
Description: The specificity of α-1,4-glucan lyase for different oligosaccharides was tested. […] The oligosaccharides were dissolved in H2O at a concentration of 8 mg/ml. The enzyme assay contained 150 μl substrate G2/G3/G4/G5/G6/G7, 120 μl 0.1M MES pH 6.3 and 30 μl purified enzyme. The reaction mixture was incubated for 60 min at 30° C. Afterwards the reaction was stopped by boiling for 3 min and 900 μl absolute ethanol was added for precipitation. After centrifugation at 20.000×g for 5 min at 4° C. the supernatant was transferred to a new eppendorf tube and lyophilized.
The freeze-dried samples were dissolved in 1000 μl H2O and were filtrated through a 0.22 μm Millipore filter before 25 μl of the sample was loaded on the Dionex HPLC.
Analyses were performed on a Dionex 4500i chromatography system consisting of a GPM-2 pump and a PED detector which was used in pulse-amperometric detection mode. The anion exchange columns were a CarboPac PA-100 (4×250 mm) and a CarboPac PA-100 guard column (3×25 mm) from Dionex. The eluent were 200 mM sodium hydroxide (A), 500 mM sodium acetate (B) and 18 M ohm de-ionized water (C). The pump was programmed in 2 different ways, method no. 1 and method no.

α-1,4-glucan lyase [5] = assay: Reversible and irreversible inhibitors of the lyase; type: biochemical, Gracilariopsis lemaneiformis; details: for decrease of lyase activity (inhibition): 0.1 M inhibitor; for inhibition (second, untitled table): lyase not stated
α-1,4-glucan lyase [6] = test system: α-1,4-glucan lyase
α-1,4-glucan lyase [7] = assay: Effect of different reaction media upon production of AF by the lyase; type: biochemical, Gracilariopsis lemaneiformis; details: reaction medium
Text: The production of AF using either pure water or 0.85% NaCl as reaction medium decreased the yield.

[8] = Electrochemical oxygen consumption in methyl linoleate emulsion; details: AF 15, 146 and 680 μM; metmyoglobin initiated; 25.0° C.
Description: The activity of AF was investigated in a methyl linoleate emulsion as described by Jorgensen and Skibsted (Z. Lebensm. Unters. Forsch. (1993) 196: 423-429) with minor modifications: To 5.00 ml of a 1.33 mM methyl linoleate emulsion in 5.0 mM aqueous phosphate buffer with pH=5.8 and 0.2 w/w % Tween 20 as emulsifier was added AF in the following concentrations: 0, 15, 146 and 680 μM. The oxidation in the system was initiated by addition of 50 μl […] metmyoglobin (MMb) final concentration 0.26 mM. Immediately after initiating the reaction the sample was injected to a thermostated (25.0±0.1° C.) 70 μl closed cell, effectively excluding diffusion of oxygen into the system. The oxygen consumption was measured by a Clark electrode, which was connected to a PC data collection program. The relative oxygen concentration (%) was registered every 30 s.

[9] = Induction period of 50% mayonnaise in bomb calorimeter; details: +500 ppm in mayonnaise; 80° C., pure O2
Description: In the test procedure the anti-oxidants were added to the mayonnaise to provide an anti-oxidant concentration in the order of about 500 ppm. The mayonnaise was then placed in a bomb calorimeter at temperature 80° C. containing pure O2. An induction period to the onset of substantial oxidation of the product is then measured.

[10] = Induction period of yogurt salad dressing with 50% oil
Text: For each temperature defined as PF=IP of the oil with added antioxidant/IP of the same oil without added antioxidant

[11] = ESR analysis of hydroxyl radical scavenging (Fenton reaction, DMPO spin trap); details: for Peak height of ESR-spectra [120 s] / Peak height of ESR-spectra [300 s]: H2O2 0.17 mM, Fe2+ 4.8 μM
Description: Hydroxyl radicals were generated by a Fenton reaction with H2O2 (0.17 mM) and FeSO4 (4.8 μM). The generated radicals were trapped by 5,5-dimethyl-1-pyrroline N-oxide (DMPO, 9.7 mM). AF was added in concentrations of 1.3 mM and 6.3 mM. A water soluble extract of rosemary (Rosmarinus officinalis L.) was analyzed in a concentration of 0.25 mg/ml (in grams equivalent to 1.26 mM AF). Measurements were carried out at room temperature (20±1° C.) after 120 s and repeated for the same reaction mixture after 300 s with the following spectrometer settings: Center field 3475.60 G; sweep width 55 G; microwave power 20 mW; modulation frequency 100 kHz; modulation amplitude 1.01 G; receiver gain 1.00·10^5; conversion time 81.92 ms time constant 163.84 ms and sweep time 83.89 s.
The spin adduct gives rise to a characteristic 1:2:2:1 ESR spectrum. The peak height of the spectrum is proportional to the quantitative amount of generated spin adduct. Addition of both DMPO and AF will set up a competition between the spin trap and AF. A reduction of peak height will indicate a good scavenging activity of AF.

[12] = Reduction of 3,5-dinitrosalicylic acid; type: physicochemical
α-1,4-glucan lyase [13] = assay: Formation of AF from amylopectin (HPLC), end-product inhibition; type: biochemical; details: equal AF after 30 and 120 min incubation
Description: α-1,4-glucan lyase according to the present invention hydrolyses starch to the end-product 1,5-anhydrofructose. The end-product was shown by HPLC, method 2. The enzyme assay contained 500 μl amylopectin (20 mg/ml, dissolved in H2O), 400 μl 0.1 M MES pH 6.3 and 100 μl purified enzyme. The reaction mixture was incubated at 30° C. and the reaction was stopped by boiling after 30 or 120 min incubation. High-molecular oligosaccharides were precipitated by addition of 3 vol abs. ethanol and the sample was centrifuged and freeze-dried as described above. The samples were dissolved in 125 μl H2O and 25 μl were applied on the HPLC column.

Oxidation of AF by air = type: physicochemical; details: especially at high temperature, high AF concentration, long exposure
Text: Catalase is needed to dispel H2O2 formed. H2O2 will oxidize AF into two new compounds which are at present of unknown structure. The other impurities in the AF preparation are the oxidation products of AF. […] Gluconic acid was removed together with the buffer salts by ion exchange chromatography.

[14] = Isoelectric focusing of the α-1,4-glucan lyases; type: physicochemical; details: isoelectrofocusing, pH gradient 3-9
Text: The relative migration rates were estimated from native PAGE on gels with 8-25% gradient; the pI values were estimated by isoelectrofocusing on gels with a pH gradient of 3-9.
FIG. 2. Isoelectric focusing of the α-1,4-glucan lyases on a gel with a pH gradient of pH 3 to pH 9. The gel was stained with PhastGel Blue R.

[15] = lyase added, pullulanase omitted
[16] = lyase omitted, pullulanase added

Km (α-1,4-glucan lyase [1]): 3.37 mg/mL
AF released (α-1,4-glucan lyase [2]): 592 nmol
Molecule: Glycogen

1,5-anhydrofructose formation from substrate (α-1,4-glucan lyase [4]): almost no 1,5-anhydrofructose was formed
activity of the lyase towards maltosaccharides (α-1,4-glucan lyase [2]; in words): low activity
AF released (α-1,4-glucan lyase [2]): 657 nmol
decrease of lyase activity (inhibition) (α-1,4-glucan lyase [5]; substrate amylopectin 1% (10 mg/ml)): 73.4%
decrease of lyase activity (inhibition) (α-1,4-glucan lyase [5]; substrate amylopectin 2%): 67.2%
decrease of lyase activity (inhibition) (α-1,4-glucan lyase [5]; substrate glycogen 1% (10 mg/ml)): 48.8%
decrease of lyase activity (inhibition) (α-1,4-glucan lyase [5]; substrate glycogen 2%): 49.7%
inhibition (second, untitled table) (α-1,4-glucan lyase [5]; substrate amylopectin (1%)): 80%
inhibition (second, untitled table) (α-1,4-glucan lyase [5]; substrate glycogen (1%)): 57%
Molecule: OC[C@H]1O[C@H](O[C@H]2[C@H](O)[C@@H](O)C(O)O[C@@H]2CO)[C@H](O)[C@@H](O)[C@@H]1O (mixture of isomers) [Maltose]

effect on lyase activity (α-1,4-glucan lyase [6]; up to 20 mM in the reaction mixture): little effect
Molecule: O=C(O)CN(CCN(CC(=O)O)CC(=O)O)CC(=O)O [EDTA]

Continued, molecule first:

Molecule: Amylopectin
Km (α-1,4-glucan lyase [1]): 3.76 mg/mL
AF Yield (%) (lyase and pullulanase; [15]): 48.0%
Glc Yield (%) (lyase and pullulanase; [15]): 0%
AF Yield (%) (lyase and pullulanase; lyase and pullulanase added): 71.3%
Glc Yield (%) (lyase and pullulanase; lyase and pullulanase added): 3.7%
AF Yield (%) (lyase and pullulanase; [16]): 0%
Glc Yield (%) (lyase and pullulanase; [16]): 0.33%
AF released (α-1,4-glucan lyase [2]): 732 nmol
effect on stability of the lyase (α-1,4-glucan lyase [3]): stabilizing effect

Molecule: [Cl-].[Na+] [NaCl]
increase of AF yield (α-1,4-glucan lyase [6]; 0.85% (0.145 M) in the reaction mixture): up to 1 fold

Molecule: O [Water]
AF yield (α-1,4-glucan lyase [7]; reaction time 1 day): 46 µmol
AF yield (α-1,4-glucan lyase [7]; reaction time 3 days): 128 µmol
AF yield (α-1,4-glucan lyase [7]; reaction time 8 days): 217 µmol

Molecule: O=C1CO[C@H](CO)[C@@H](O)[C@@H]1O [AF, 1,5-D-anhydrofructose]
oxygen consumption curve [8]: lag-phase is observed
IP hours (Induction Period) [9]: 32,0 hours
IP hours (Induction Period) ([10]; 500 ppm in yogurt salad dressing): 39.5 h
PF (Protection Factor) ([10]; 500 ppm, IP with antioxidant / IP without): 1.06
scavenging activity of hydroxyl radicals ([11]; 1.3 mM AF): no scavenging activity
Peak height of ESR-spectra [120 s] ([11]; 1.3 mM AF): 2634
Peak height of ESR-spectra [300 s] ([11]; 1.3 mM AF): 2545
scavenging activity of hydroxyl radicals ([11]; 6.3 mM AF): peak height is reduced
Peak height of ESR-spectra [120 s] ([11]; 6.3 mM AF): 1781
Peak height of ESR-spectra [300 s] ([11]; 6.3 mM AF): 1900
reducing agent (antioxidant) activity [12]: can easily reduce 3,5-dinitrosalicylic acid
inhibition of enzyme activity by end-product (α-1,4-glucan lyase [13]): not inhibited
oxidation by air-level of oxygen (Oxidation of AF by air): can slowly be oxidized

B1: MV-lyase: lyase isolated from the fungus Morchella vulgaris, ATCC (protein)
chain: MAGLSDPLNFCKAEDYYAAAKGWSGPQKIIRYDQTPPQGTKDPKSWHAVNLPFDDGTMCVVQFVRPCVWRVRYDPSVKTSDEYGDENTRTIVQDYMTTLVGNLDIFRGLTWVSTLEDSGEYYTFKSEVTAVDETERTRNKVGDGLKIYLWKNPFRIQVVRLLTPLVDPFPIPNVANATARVADKVVWQTSPKTFRKNLHPQHKMLKDTVLDIIKPGHGEYVGWGEMGGIEFMKEPTFMNYFNFDNMQYQQVYAQGALDSREPLYHSDPFYLDVNSNPEHKNITATFIDNYSQIAIDFGKTNSGYIKLGTRYGGIDCYGISADTVPEIVRLYTGLVGRSKLKPRYILGAHQACYGYQQESDLHAVVQQYRDTKFPLDGLHVDVDFQDNFRTFTTNPITFPNPKEMFTNLRNNGIKCSTNITPVISIRDRPNGYSTLNEGYDKKYFIMDDRYTEGTSGDPQNVRYSFYGGGNPVEVNPNDVWARPDFGDNYDFPTNFNCKDYPYHGGVSYGYGNGTPGYYPDLNREEVRIWWGLQYEYLFNMGLEFVWQDMTTPAIHSSYGDMKGLPTRLLVTADSVTNASEKKLAIESWALYSYNLHKATFHGLGRLESRKNKRNFILGRGSYAGAYRFAGLWTGDNASTWEFWKISVSQVLSLGLNGVCIAGSDTGGFEPARTEIGEEKYCSPELLIRWYTGSFLLPWLRNHYVKKDRKWFQEPYAYPKHLETHPELADQAWLYKSVLEICRYWVELRYSLIQLLYDCMFQNVVDGMPLARSMLLTDTEDTTFFNESQKFLDNQYMAGDDILVAPILHSRNEVPGENRDVYLPLFHTWYPSNLRPWDDQGVALGNPVEGGSVINYTARIVAPEDYNLFHNVVPVYIREGAIIPQIQVRQWIGEGGPNPIKFNIYPGKDKEYVTYLDDGVSRDSAPDDLPQYREAYEQAKVEGKDVQKQLAVIQGNKTNDFSASGIDKEAKGYHRKVSIKQESKDKTRTVTIEPKHNGYDPSKEVGNYYTIILWYAPGFDGSIVDVSQATVNIEGGVECEIFKNTGLHTVVVNVKEVIGTTKSVKITCTTA
pI [14]: 4.4

Reference: patent US6541237B1, “A-1,4-glucan lyase and its use in the production of 1.5-androfructose” (Danisco A/S, priority 1994, dated 2003)
